Test results reported in BindingDB's records for doi:10.1016/j.ejmech.2021.113607 (Institute of Medical Biology Pas, 2021).

Target: T1, Adenosine receptor A2b (Homo sapiens, UniProt P29275)
T1 sequence (P29275 whole entry): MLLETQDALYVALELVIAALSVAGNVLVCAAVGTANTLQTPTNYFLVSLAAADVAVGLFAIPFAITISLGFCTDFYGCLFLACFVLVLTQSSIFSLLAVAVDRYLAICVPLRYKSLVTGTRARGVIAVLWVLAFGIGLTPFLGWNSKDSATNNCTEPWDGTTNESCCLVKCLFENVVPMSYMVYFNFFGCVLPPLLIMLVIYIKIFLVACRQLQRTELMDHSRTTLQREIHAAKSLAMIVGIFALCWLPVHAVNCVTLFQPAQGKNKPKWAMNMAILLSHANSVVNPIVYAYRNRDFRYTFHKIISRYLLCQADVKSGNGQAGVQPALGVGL
Test: Displacement of [3H]DPCPX from human adenosine A2B receptor expressed in HEK cell membrane incubated for 30 mins by microplate beta scintillation counting based radioligand inhibition assay

Ki: 3.33 µM
SMILES: CCNC(=O)[C@H]1O[C@@H](n2cnc3c(NCCCCc4ccccc4)ncnc32)[C@H](O)[C@@H]1O
